# Experimental data: paper PMC8119899, “A Single Mutation in the Outer Lipid-Facing Helix of a Pentameric Ligand-Gated Ion Channel Affects Channel Function Through a Radially-Propagating Mechanism” (Frontiers in Molecular Biosciences, 2021)
# Positions count from the first letter of the chain named.
# Columns and labels:
# [1] = biological target: T1, WT 5-HT3A receptor (Mus musculus, UniProt P23979); assay: [3H]GR65630 saturation binding, WT receptor, HEK293 cell membranes; conditions: mean and SEM, n ≥ 3
# T1 construct: expressed in transfected cells; host or cells: HEK293
# T1 sequence (P23979 24-483 isoform P23979-2 limits assumed): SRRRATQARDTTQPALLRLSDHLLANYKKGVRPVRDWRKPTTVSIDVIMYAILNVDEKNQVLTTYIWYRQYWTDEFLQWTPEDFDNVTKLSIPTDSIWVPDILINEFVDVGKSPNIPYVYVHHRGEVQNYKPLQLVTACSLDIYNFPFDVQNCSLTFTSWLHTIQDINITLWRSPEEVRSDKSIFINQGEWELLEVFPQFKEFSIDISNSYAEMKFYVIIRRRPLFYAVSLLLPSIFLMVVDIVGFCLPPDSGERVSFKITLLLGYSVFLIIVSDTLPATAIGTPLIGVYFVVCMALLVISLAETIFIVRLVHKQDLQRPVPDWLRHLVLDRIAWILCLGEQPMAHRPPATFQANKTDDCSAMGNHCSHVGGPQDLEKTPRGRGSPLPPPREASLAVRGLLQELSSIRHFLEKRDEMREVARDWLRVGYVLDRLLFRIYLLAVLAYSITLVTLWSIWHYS
# Method: (§1) The mouse 5-HT3A cDNA (Q6J1J7) in pcDNA3.1 (for HEK cell transfection) or pGEMHE (for RNA production) was modified by QuikChange site-directed mutagenesis (Agilent Technologies) to create point mutants (verified by sequencing).
# (§2) Human embryonic kidney (HEK) 293 cells were maintained at 37 °C at 5% CO2 in a humidified atmosphere, in Dulbecco's Modified Eagle's Medium/Nutrient Mix F12 (1:1) (Invitrogen, Paisley, UK) with GlutaMAX^TM and 10% fetal bovine serum (GE Healthcare) (DMEM/FBS) and passaged when confluent. Five micrograms of WT or mutant 5-HT3A DNA and 30 μl polyethyleneamine (Polysciences) incubated for 10 min in 1 mL DMEM was added to 60% confluent HEK293 cells for transfection, and cells grown for 2 days before assays.
# (§3) This was performed as previously described. Lummis and Thompson ([2013]) Briefly receptors in crude HEK293 cell membranes were labeled with the 5-HT3R antagonist [^3H]GR65630 by incubation in 0.5 mL 10 mM HEPES buffer pH 7.5 for 1 h on ice, using 1 μM quipazine to determine non-specific binding. Data were analyzed in GraphPad Prism by iterative curve fitting.
# [2] = biological target: T2, 5-HT3A receptor M235A (Mus musculus, UniProt P23979, M262A); assay: [3H]GR65630 saturation binding, M235A receptor, HEK293 cell membranes; conditions: mean and SEM, n ≥ 3
# T2 construct: expressed in transfected cells; host or cells: HEK293
# T2 sequence (P23979 24-489 M262A): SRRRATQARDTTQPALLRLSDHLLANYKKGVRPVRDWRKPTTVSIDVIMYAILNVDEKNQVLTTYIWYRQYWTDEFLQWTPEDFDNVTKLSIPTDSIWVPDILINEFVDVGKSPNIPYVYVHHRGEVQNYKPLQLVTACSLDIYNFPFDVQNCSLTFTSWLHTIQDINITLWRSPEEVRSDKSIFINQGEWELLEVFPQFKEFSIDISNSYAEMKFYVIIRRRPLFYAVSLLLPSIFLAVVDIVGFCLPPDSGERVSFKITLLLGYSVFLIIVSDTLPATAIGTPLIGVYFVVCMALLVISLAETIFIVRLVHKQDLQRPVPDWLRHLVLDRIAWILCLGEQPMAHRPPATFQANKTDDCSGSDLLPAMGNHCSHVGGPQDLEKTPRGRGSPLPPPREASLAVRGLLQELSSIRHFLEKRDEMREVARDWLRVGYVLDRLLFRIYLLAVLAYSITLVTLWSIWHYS
# Method: as §1, §2, §3
# [3] = biological target: T3, 5-HT3A receptor K255L (Mus musculus, UniProt P23979, K282L); assay: [3H]GR65630 saturation binding, K255L receptor, HEK293 cell membranes; conditions: mean and SEM, n ≥ 3
# T3 construct: expressed in transfected cells
# T3 sequence (P23979 24-489 K282L): T2 sequence (P23979 24-489 M262A) with A239M, K259L
# Method: as §1, §2, §3
# [4] = biological target: T4, 5-HT3A receptor Y441A (Mus musculus, UniProt P23979, Y468A); parameters: expressed in transfected cells; method as in Mesoy et al., [2019]; conditions: HEK293 cells, ref Mesoy et al., [2019]; cited from earlier work
# T4 sequence (P23979 24-489 Y468A): T2 sequence (P23979 24-489 M262A) with A239M, Y445A
# [5] = biological target: T5, 5-HT3A receptor D238A (Mus musculus, UniProt P23979, D265A); assay: [3H]GR65630 saturation binding, D238A receptor, HEK293 cell membranes; parameters: expressed in transfected cells; host or cells: HEK293; conditions: mean and SEM, n ≥ 3
# T5 sequence (P23979 24-489 D265A): T2 sequence (P23979 24-489 M262A) with A239M, D242A
# Method: as §1, §2, §3
# [6] = biological target: T6, 5-HT3A receptor C290A (Mus musculus, UniProt P23979, C317A); assay: [3H]GR65630 saturation binding, C290A receptor, HEK293 cell membranes; parameters: expressed in transfected cells; host or cells: HEK293; conditions: mean and SEM, n ≥ 3
# T6 sequence (P23979 24-489 C317A): T2 sequence (P23979 24-489 M262A) with A239M, C294A
# Method: as §1, §2, §3
smiles,measurement,setting,value
Cc1[nH]cnc1CCC(=O)c1cn(C)c2ccccc12 [[^3H]GR65630],Bmax,[1],1.2 ± 0.8 pmol/mg protein
same,Kd,[1],180 ± 30 pM
same,Bmax,[2],2.4 ± 0.4 pmol/mg protein
same,Kd,[2],700 ± 90 pM
same,Bmax,[3],0.4 ± 0.2 pmol/mg protein
same,Kd,[3],170 ± 20 pM
same,level of [3H]GR65630 binding sites,[4],high levels
same,Bmax,[5],1.8 ± 0.4 pmol/mg protein
same,Kd,[5],500 ± 70 pM
same,Bmax,[6],3.8 ± 0.3 pmol/mg protein
same,Kd,[6],850 ± 100 pM
